We go through twelve compounds from patent US11566007B2, “Ras inhibitors” (Revolution Medicines, Inc., priority 2019, dated 2023).

One experiment has as its target NRAS WT (Homo sapiens (Human), UniProt P01111+P62937). As to the kind of experiment: Ras-Raf (BRAF RBD) disruption / FRET / MOA assay, NRAS WT. Type of experiment: biochemical. Conditions: read-out: IC50* NRAS WT FRET data. The method, boiled down:
(§1)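 Compounds (30 μM top final, 10-point 3-fold dilutions) incubated 3 h at 25° C with nucleotide-loaded Ras, cyclophilin A and BRAF RBD. Detection with 10 nM anti-His Eu-W1024 and 50 nM anti-GST allophycocyanin over another 1.5 h. Lowered TR-FRET ratio relative to DMSO wells gives IC50.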

A further experiment deals with KRAS G13D (Homo sapiens (Human), UniProt P01116+P62937, G13D). As to the kind of experiment: Ras-Raf (BRAF RBD) disruption / FRET / MOA assay, KRAS G13D. The class given is biochemical. Conditions: read-out: IC50* KRAS G13D FRET data. The method, boiled down: (§2)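 Compound-driven ternary complex of nucleotide-loaded Ras with cyclophilin A, disrupting BRAF RBD binding. 10-point 3-fold dilution from 30 μM final, 3 h at 25° C, then anti-His Eu-W1024 (10 nM) and anti-GST allophycocyanin (50 nM) for 1.5 h. IC50 from TR-FRET ratio decrease versus DMSO.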

A further experiment addresses KRAS G12V (Homo sapiens (Human), UniProt P01116+P62937, G12V). As to the kind of experiment: Ras-Raf (BRAF RBD) disruption / FRET / MOA assay, KRAS G12V. Type of experiment: biochemical. Conditions: read-out: IC50* KRAS G12V FRET data. The method, boiled down:
as §2

The target of another experiment is K-Ras G13C (Homo sapiens (Human), UniProt P01116+P62937, G13C). As to the kind of experiment: Ras-Raf (BRAF RBD) disruption / FRET / MOA assay, KRAS G13C. The class given is biochemical. Conditions: KRAS G13C; Ras-Raf disruption/FRET/MOA assay; read-out: IC50* KRAS G13C FRET data. The method, boiled down: as §2
The subject of experiment [1] is NCI-H358 cells (K-Ras G12C). As to the kind of experiment: Potency assay: pERK in NCI-H358 cells. The class given is cell-based, human. Conditions: Homo sapiens, NCI-H358; H358 KRAS G12C; read-out: pERK EC50. The method, boiled down: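 Compounds are dosed as ten 3-fold dilutions from a 10 mM DMSO stock, in duplicate, and left on cells for 4 h at 37 °C, 5% CO2. Phospho-ERK1/2 is then quantified by AlphaLISA SureFire Ultra or In-Cell Western, and IC50 is derived from a 4-parameter sigmoid against log concentration.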

In a further experiment the target is KRAS Q61H (Homo sapiens (Human), UniProt P01116+P62937, Q61H). As to the kind of experiment: Ras-Raf (BRAF RBD) disruption / FRET / MOA assay, KRAS Q61H. As to conditions: Ras-Raf disruption/FRET/MOA assay; class symbols; read-out: KRAS Q61H FRET data IC50. The class given is biochemical. The method, boiled down: as §1
The next experiment concerns the target KRAS WT (Homo sapiens (Human), UniProt P01116+P62937). Kind of experiment: Ras-Raf (BRAF RBD) disruption / FRET / MOA assay, KRAS WT. The class given is biochemical. As to conditions: read-out: IC50* KRAS WT FRET data. The method, boiled down: as §2

pEC50, pIC50: −log10 of the molar value.

Sequence of KRAS WT (P01116-2 other isoform, or with tags, fused parts or gaps): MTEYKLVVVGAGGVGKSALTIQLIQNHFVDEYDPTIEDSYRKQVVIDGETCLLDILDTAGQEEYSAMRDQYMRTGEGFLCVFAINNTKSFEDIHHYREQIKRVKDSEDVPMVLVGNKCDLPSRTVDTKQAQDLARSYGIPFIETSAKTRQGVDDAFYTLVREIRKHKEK
Sequence of KRAS WT (P62937 whole entry): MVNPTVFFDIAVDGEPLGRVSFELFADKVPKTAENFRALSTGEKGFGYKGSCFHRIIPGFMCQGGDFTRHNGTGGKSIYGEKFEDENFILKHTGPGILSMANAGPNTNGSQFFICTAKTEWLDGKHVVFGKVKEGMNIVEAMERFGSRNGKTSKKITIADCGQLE
Sequence of K-Ras G13C (P01116-2 other isoform, or with tags, fused parts or gaps G13C): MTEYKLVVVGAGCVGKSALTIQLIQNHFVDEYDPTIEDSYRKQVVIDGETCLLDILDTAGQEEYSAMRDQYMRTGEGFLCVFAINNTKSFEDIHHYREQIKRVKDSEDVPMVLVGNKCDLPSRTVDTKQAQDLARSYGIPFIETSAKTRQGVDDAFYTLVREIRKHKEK
Sequence of K-Ras G13C (P62937 whole entry): as the sequence (P62937 whole entry) above
Sequence of KRAS G12V (P01116-2 other isoform, or with tags, fused parts or gaps G12V): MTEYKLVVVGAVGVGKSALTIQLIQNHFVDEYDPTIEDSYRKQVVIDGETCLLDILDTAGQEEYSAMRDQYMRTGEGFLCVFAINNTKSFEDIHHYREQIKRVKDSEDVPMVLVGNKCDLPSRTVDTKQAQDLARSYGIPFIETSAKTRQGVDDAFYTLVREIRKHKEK
Sequence of KRAS G12V (P62937 whole entry): as the sequence (P62937 whole entry) above
Sequence of KRAS G13D (P01116-2 other isoform, or with tags, fused parts or gaps G13D): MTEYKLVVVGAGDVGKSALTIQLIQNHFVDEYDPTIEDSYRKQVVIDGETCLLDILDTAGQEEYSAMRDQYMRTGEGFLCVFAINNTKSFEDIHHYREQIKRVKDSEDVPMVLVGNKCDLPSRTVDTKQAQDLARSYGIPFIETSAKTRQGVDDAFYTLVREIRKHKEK
Sequence of KRAS G13D (P62937 whole entry): as the sequence (P62937 whole entry) above
Sequence of NRAS WT (P01111 whole entry): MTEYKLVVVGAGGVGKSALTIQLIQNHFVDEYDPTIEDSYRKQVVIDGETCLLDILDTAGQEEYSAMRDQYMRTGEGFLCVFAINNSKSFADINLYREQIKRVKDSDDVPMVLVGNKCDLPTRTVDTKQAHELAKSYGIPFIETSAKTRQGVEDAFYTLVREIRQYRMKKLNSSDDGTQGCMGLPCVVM
Sequence of NRAS WT (P62937 whole entry): as the sequence (P62937 whole entry) above
Sequence of KRAS Q61H (P01116-2 other isoform, or with tags, fused parts or gaps Q61H): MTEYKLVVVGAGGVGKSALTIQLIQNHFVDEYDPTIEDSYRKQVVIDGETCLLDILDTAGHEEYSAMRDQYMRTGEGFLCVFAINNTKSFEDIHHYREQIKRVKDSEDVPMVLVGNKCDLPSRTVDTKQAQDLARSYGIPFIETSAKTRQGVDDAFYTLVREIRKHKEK
Sequence of KRAS Q61H (P62937 whole entry): as the sequence (P62937 whole entry) above

Turning to `CCn1c(-c2cccnc2[C@H](C)OC)c2c3cc(ccc31)N1CCC[C@@H](C[C@H](NC(=O)[C@H](C(C)C)N(C)C(=O)C3(F)CCN(C(=O)C#CC(C)(C)N(C)C)CC3)C(=O)N3CCC[C@H](N3)C(=O)OCC(C)(C)C2)C1` (atropisomer, axis not shown) [Example A615], the pIC50 at NRAS WT, on KRAS G13D, on KRAS G12V, on K-Ras G13C, on KRAS Q61H and on KRAS WT was under 5.00 throughout. The pEC50 (as a rule, −log10 of the EC50, conventionally taken in molar units) in experiment [1] is over 5.30.
On to `C=CC(=O)N(C)CCC1CCN(C(=O)N(C)[C@H](C(=O)N[C@H]2Cc3nc(cs3)-c3ccc4c(c3)c(c(-c3cccnc3[C@H](C)OC)n4CC)CC(C)(C)COC(=O)[C@@H]3CCCN(N3)C2=O)C(C)C)CC1` (atropisomer, axis not shown) [Example A621], for which the pIC50 (as a rule, the negative decadic logarithm of the IC50, by convention in mol/L) at NRAS WT is 7.00 to 8.00; at KRAS G13D, 6.00 to 7.00; at KRAS G12V, 7.00 to 8.00; at K-Ras G13C it was 7.00 to 8.00; on KRAS Q61H, over 8.00; at KRAS WT it was 7.00 to 8.00. In addition, the pEC50 in experiment [1] was over 5.30.
Take `CCn1c(-c2cccnc2[C@H](C)OC)c2c3cc(ccc31)-c1csc(n1)C[C@H](NC(=O)[C@H](C(C)C)N(C)C(=O)N1C[C@H]3CN(C(=O)C#CC(C)(C)N(C)C)CC[C@H]31)C(=O)N1CCC[C@H](N1)C(=O)OCC(C)(C)C2` (atropisomer, axis not shown) [Example A624]: the pIC50 at NRAS WT, on KRAS G13D, on KRAS G12V, at K-Ras G13C, on KRAS Q61H and at KRAS WT was 6.00 to 7.00 throughout. The pEC50 in experiment [1] was over 5.30.
In the case of `CCn1c(-c2cccnc2[C@H](C)OC)c2c3cc(ccc31)-c1csc(n1)C[C@H](NC(=O)[C@H](F)COC1CN(C(=O)C#CC(C)(C)N(C)C)C1)C(=O)N1CCC[C@H](N1)C(=O)OCC(C)(C)C2` (atropisomer, axis not shown) [Example A627], the pIC50 on NRAS WT was under 5.00; at KRAS G13D, under 5.00; on KRAS G12V, under 5.00; at K-Ras G13C, under 5.00; at KRAS Q61H it was 5.00 to 6.00; on KRAS WT, under 5.00. In addition, in experiment [1], the negative-log EC50 (pEC50) was over 5.30.
For `C=C(C)C(=O)N1CC2(CCN(C(=O)N(C)[C@H](C(=O)N[C@H]3Cc4nc(cs4)-c4ccc5c(c4)c(c(-c4cccnc4[C@H](C)OC)n5CC)CC(C)(C)COC(=O)[C@@H]4CCCN(N4)C3=O)C(C)C)CC2)C1` (atropisomer, axis not shown) [Example A651], the pIC50 on NRAS WT was 6.00 to 7.00; on KRAS G13D, 6.00 to 7.00; at KRAS G12V, 6.00 to 7.00; on K-Ras G13C, 6.00 to 7.00; at KRAS Q61H it was 7.00 to 8.00; on KRAS WT, 6.00 to 7.00. Further, the pEC50 in experiment [1] is over 5.30.
As for `C=CC(=O)N(C)C[C@H]1CCN(C(=O)N(C)[C@H](C(=O)N[C@H]2Cc3nc(cs3)-c3ccc4c(c3)c(c(-c3cccnc3[C@H](C)OC)n4CC)CC(C)(C)COC(=O)[C@@H]3CCCN(N3)C2=O)C(C)C)C1` (atropisomer, axis not shown) [Example A653], the pIC50 on NRAS WT is 6.00 to 7.00; on KRAS G13D, 6.00 to 7.00; at KRAS G12V, 6.00 to 7.00; at K-Ras G13C, 6.00 to 7.00; on KRAS Q61H, 7.00 to 8.00; at KRAS WT it was 6.00 to 7.00. In addition, the pEC50 in experiment [1] is over 5.30.
Consider `C=CC(=O)N(C)C[C@@H]1CCN(C(=O)N(C)[C@H](C(=O)N[C@H]2Cc3nc(cs3)-c3ccc4c(c3)c(c(-c3cccnc3[C@H](C)OC)n4CC)CC(C)(C)COC(=O)[C@@H]3CCCN(N3)C2=O)C(C)C)C1` (atropisomer, axis not shown) [Example A654], for which the pIC50 is 6.00 to 7.00 at NRAS WT; 6.00 to 7.00 at KRAS G13D; 6.00 to 7.00 on KRAS G12V; 6.00 to 7.00 on K-Ras G13C; 7.00 to 8.00 at KRAS Q61H; 6.00 to 7.00 at KRAS WT. Moreover, in experiment [1], the negative-log EC50 (pEC50) is over 5.30.
On to `CCn1c(-c2cccnc2[C@H](C)OC)c2c3cc(ccc31)-c1cccc(c1)C[C@H](NC(=O)[C@@H](COC1CN(C(=O)C#CC(C)(C)N(C)CCO)C1)C(C)C)C(=O)N1CCC[C@H](N1)C(=O)OCC(C)(C)C2` (atropisomer, axis not shown) [Example A657], for which the pIC50 is under 5.00 on NRAS WT; under 5.00 at KRAS G13D; under 5.00 at KRAS G12V; 5.00 to 6.00 at K-Ras G13C; under 5.00 on KRAS Q61H; under 5.00 on KRAS WT. In addition, in experiment [1], the pEC50 is over 5.30.
Regarding `CCn1c(-c2cccnc2[C@H](C)OC)c2c3cc(ccc31)-c1csc(n1)C[C@H](NC(=O)[C@@H](COC1CN(C(=O)C#CC(C)(C)N(C)C)C1)OC)C(=O)N1CCC[C@H](N1)C(=O)OCC(C)(C)C2` (atropisomer, axis not shown) [Example A660], the pIC50 on NRAS WT is 6.00 to 7.00; on KRAS G13D, 5.00 to 6.00; at KRAS G12V it was 6.00 to 7.00; on K-Ras G13C, 6.00 to 7.00; at KRAS Q61H it was 6.00 to 7.00; on KRAS WT, 6.00 to 7.00. In addition, the pEC50 in experiment [1] is over 5.30.
Regarding `C=CC(=O)N1CC[C@@]2(CCN2C(=O)N(C)[C@H](C(=O)N[C@H]2Cc3nc(cs3)-c3ccc4c(c3)c(c(-c3cccnc3[C@H](C)OC)n4CC)CC(C)(C)COC(=O)[C@@H]3CCCN(N3)C2=O)C(C)C)C1` (atropisomer, axis not shown) [Example A661], the pIC50 at NRAS WT was 6.00 to 7.00; at KRAS G13D, 6.00 to 7.00; at KRAS G12V, 5.00 to 6.00; on K-Ras G13C it was 6.00 to 7.00; on KRAS Q61H it was 7.00 to 8.00; at KRAS WT, 6.00 to 7.00. Moreover, in experiment [1], the negative logarithm of the EC50 (pEC50) is over 5.30.
For the compound `CCn1c(-c2cccnc2[C@H](C)OC)c2c3cc(ccc31)C1=CCCN(C1)C[C@H](NC(=O)[C@@H](COC1CN(C(=O)C#CC(C)(C)N(C)C)C1)C(C)C)C(=O)N1CCC[C@H](N1)C(=O)OCC(C)(C)C2` (atropisomer, axis not shown) [Example A663, (2R)-2-(((1-(4-(dimethylamino)-4-methylpent-2-ynoyl)405yridine405-3-yl)oxy)methyl)-N-((6^3S,4S)-1^1-ethyl-1^2-(2-((S)-1-methoxyethyl)405yridine-3-yl)-10,10-dimethyl-5,7-dioxo-2^1,2^2,2^3,2^6,6^1,6^2,6^3,6^4,6^5,6^6-decahydro-1^1H-8-oxa-1(5,3)-indola-6(1,3)-pyridazina-2(5,1)-pyridinacycloundecaphane-4-yl)-3-methylbutanamide], the pIC50 on NRAS WT is under 5.00; at KRAS G13D it was under 5.00; at KRAS G12V it was under 5.00; at K-Ras G13C, 5.00 to 6.00; at KRAS Q61H, under 5.00; at KRAS WT it was under 5.00. In addition, the pEC50 in experiment [1] is over 5.30.
For `CCn1c(-c2cccnc2[C@H](C)OC)c2c3cc(ccc31)-c1csc(n1)C[C@H](NC(=O)[C@H](C(C)C)N(C)C(=O)N1CCN(C(=O)/C=C/CN3CCOCC3)C3(CC3)C1)C(=O)N1CCC[C@H](N1)C(=O)OCC(C)(C)C2` (atropisomer, axis not shown) [Example A665], the pIC50 at NRAS WT was 7.00 to 8.00; on KRAS G13D it was 6.00 to 7.00; at KRAS G12V, 7.00 to 8.00; at K-Ras G13C, 6.00 to 7.00; on KRAS Q61H it was 7.00 to 8.00; on KRAS WT, 7.00 to 8.00. Moreover, the pEC50 in experiment [1] was over 5.30.
